Laboratory results taken from ChEMBL document CHEMBL5550214, “Expanding Structure-Activity Relationships of Human Urotensin II Peptide Analogues: A Proposed Key Role of the N-Terminal Region for Novel Urotensin II Receptor Modulators” (J Med Chem, 2024).
Calls of active or inactive are those of the source. The rule behind the calls is not given here. Where a SMILES comes first, the peptide text is derived from it. Bridges are numbered along the chain shown (N, C = ends).

Experiments:
[1] = biological target: T1, Urotensin-2 receptor (Homo sapiens) (UniProt Q9UKP6); assay: Modulation of human UTR stably expressed in HEK293 cells assessed as increase in Ca2+ level at 0.01 to 1 nM by Fura 2-AM dye based calcium mobilization assay; format: functional, cell-based; details: filed as modulator, dose 0.01-1 nM
T1 sequence (whole entry): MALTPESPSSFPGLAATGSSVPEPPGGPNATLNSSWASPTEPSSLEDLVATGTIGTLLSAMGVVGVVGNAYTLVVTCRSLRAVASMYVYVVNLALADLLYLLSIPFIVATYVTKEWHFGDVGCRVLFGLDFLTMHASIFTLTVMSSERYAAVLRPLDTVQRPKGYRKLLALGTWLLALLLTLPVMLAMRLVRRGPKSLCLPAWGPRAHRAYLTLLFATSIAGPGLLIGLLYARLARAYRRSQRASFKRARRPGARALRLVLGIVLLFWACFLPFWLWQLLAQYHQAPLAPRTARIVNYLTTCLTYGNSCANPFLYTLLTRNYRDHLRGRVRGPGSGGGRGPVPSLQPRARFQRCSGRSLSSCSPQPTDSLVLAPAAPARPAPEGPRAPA

Urotensin-2 receptor = biological target: T2, Urotensin-2 receptor (Homo sapiens, UniProt Q9UKP6); assay: Modulation of human UTR stably expressed in HEK293 cells assessed as increase in Ca2+ level by Fura 2-AM dye based calcium mobilization assay; format: functional, cell-based
T2 sequence (Q9UKP6 whole entry): T1 sequence (whole entry)

[2] = biological target: T1, Urotensin-2 receptor (Homo sapiens); assay: Modulation of human UTR stably expressed in HEK293 cells assessed as increase in Ca2+ level at 0.1 to 100 nM by Fura 2-AM dye based calcium mobilization assay; format: functional, cell-based; details: dose 0.1-100 nM
Aortic ring [3] = assay: Induction of contraction in Albino Wistar rat aortic ring at 1 to 30 nM; format: functional, tissue-based; details: Aorta, dose 1-30 nM
Aortic ring [4] = assay: Induction of contraction in Albino Wistar rat aortic ring assessed as Emax of hU-II at 0.1 uM incubated for 30 mins in presence of hU-II (reference value: 224.8 +/- 11.71 dyne/mg); format: functional, Aorta; details: 0.5 h
Aortic ring [5] = assay: Induction of contraction in Albino Wistar rat aortic ring assessed as Emax of hU-II at 10 uM incubated for 30 mins in presence of hU-II (reference value: 238.4 +/- 9.53 dyne/mg); format: functional, Aorta; details: 0.5 h
Aortic ring [6] = assay: Induction of contraction in Albino Wistar rat aortic ring assessed as Emax of hU-II at 1 uM incubated for 30 mins in presence of hU-II (reference value: 214.5 +/- 10.51 dyne/mg); format: functional, Aorta; details: 0.5 h
Aortic ring [7] = assay: Induction of contraction in Albino Wistar rat aortic ring assessed as Emax of U-II(4-11) at 1 uM incubated for 30 mins in presence of U-II(4-11) (reference value: 159.8 +/- 7.39 dyne/mg); format: functional, Aorta; details: 0.5 h
Aortic ring [8] = assay: Induction of contraction in Albino Wistar rat aortic ring assessed as Emax of U-II(4-11) at 10 uM incubated for 30 mins in presence of U-II(4-11) (reference value: 159.8 +/- 7.3 dyne/mg); format: functional, Aorta; details: 0.5 h
Aortic ring [9] = assay: Induction of contraction in Albino Wistar rat aortic ring assessed as Emax of U-II(4-11) at 0.1 uM incubated for 30 mins in presence of U-II(4-11) (reference value: 242.6 +/- 20.63 dyne/mg); format: functional, Aorta; details: 0.5 h
Aortic ring [10] = assay: Induction of contraction in Albino Wistar rat aortic ring assessed as Emax of [Ala1]U-II at 1 uM incubated for 30 mins in presence of [Ala1]U-II (reference value: 308.1 +/- 21.4 dyne/mg); format: functional, Aorta; details: 0.5 h
Aortic ring [11] = assay: Induction of contraction in Albino Wistar rat aortic ring assessed as Emax of [Ala1]U-II at 0.1 uM incubated for 30 mins in presence of [Ala1]U-II (reference value: 220.3 +/- 17.48 dyne/mg); format: functional, Aorta; details: 0.5 h
Aortic ring [12] = assay: Induction of contraction in Albino Wistar rat aortic ring assessed as Emax of [Ala1]U-II at 10 uM incubated for 30 mins in presence of [Ala1]U-II (reference value: 153.3 +/- 10.75 dyne/mg); format: functional, Aorta; details: 0.5 h
Aortic ring [13] = assay: Induction of contraction in Albino Wistar rat aortic ring assessed as Emax of hU-II at 10 uM incubated for 30 mins in presence of hU-II (reference value: 224.8 +/- 11.71 dyne/mg); format: functional, Aorta; details: 0.5 h
Aortic ring [14] = assay: Induction of contraction in Albino Wistar rat aortic ring assessed as Emax of hU-II at 1 uM incubated for 30 mins in presence of hU-II (reference value: 251.4 +/- 15.43 dyne/mg); format: functional, Aorta; details: 0.5 h
Aortic ring [15] = assay: Induction of contraction in Albino Wistar rat aortic ring assessed as Emax of hU-II at 0.1 uM incubated for 30 mins in presence of hU-II (reference value: 279.9 +/- 11.02 dyne/mg); format: functional, Aorta; details: 0.5 h
Aortic ring [16] = assay: Induction of contraction in Albino Wistar rat aortic ring assessed as Emax of U-II(4-11) at 0.1 uM incubated for 30 mins in presence of U-II(4-11) (reference value: 159.8 +/- 7.39 dyne/mg); format: functional, Aorta; details: 0.5 h
Aortic ring [17] = assay: Induction of contraction in Albino Wistar rat aortic ring assessed as Emax of U-II(4-11) at 1 uM incubated for 30 mins in presence of U-II(4-11) (reference value: 159.8 +/- 7.3 dyne/mg); format: functional, Aorta; details: 0.5 h
Aortic ring [18] = assay: Induction of contraction in Albino Wistar rat aortic ring assessed as Emax of U-II(4-11) at 10 uM incubated for 30 mins in presence of U-II(4-11) (reference value: 152.4 +/- 5.1 dyne/mg); format: functional, Aorta; details: 0.5 h
Aortic ring [19] = assay: Induction of contraction in Albino Wistar rat aortic ring assessed as Emax of [Ala1]U-II at 10 uM incubated for 30 mins in presence of [Ala1]U-II (reference value: 308.1 +/- 21.4 dyne/mg); format: functional, Aorta; details: 0.5 h
Aortic ring [20] = assay: Induction of contraction in Albino Wistar rat aortic ring assessed as Emax of [Ala1]U-II at 1 uM incubated for 30 mins in presence of [Ala1]U-II (reference value: 220.3 +/- 17.48 dyne/mg); format: functional, Aorta; details: 0.5 h
Aortic ring [21] = assay: Induction of contraction in Albino Wistar rat aortic ring assessed as Emax of [Ala1]U-II at 0.1 uM incubated for 30 mins in presence of [Ala1]U-II (reference value: 323 +/- 30.45 dyne/mg); format: functional, Aorta; details: 0.5 h
Aortic ring [22] = assay: Induction of contraction in Albino Wistar rat aortic ring at 1 to 30 nM relative to control; format: functional, Aorta; details: dose 1-30 nM

SMILES: CC(C)[C@H](NC(=O)[C@@H]1CSSC[C@H](NC(=O)[C@H](CC(=O)O)NC(=O)[C@@H]2CCCN2C(=O)[C@@H](NC(=O)[C@H](C)N)[C@@H](C)O)C(=O)N[C@@H](Cc2ccccc2)C(=O)N[C@@H](Cc2c[nH]c3ccccc23)C(=O)N[C@@H](CCCCN)C(=O)N[C@@H](Cc2ccc(O)cc2)C(=O)N1)C(=O)O (H-ATPDCFWKYCV-OH; disulfide 5-10)
- Activity [1]: Active

SMILES: CC(C)[C@H](NC(=O)[C@@H]1CSSC[C@H](NC(=O)[C@@H](N)CC(=O)O)C(=O)N[C@@H](Cc2ccccc2)C(=O)N[C@@H](Cc2c[nH]c3ccccc23)C(=O)N[C@@H](CCCCN)C(=O)N[C@@H](Cc2ccc(O)cc2)C(=O)N1)C(=O)O (H-DCFWKYCV-OH; disulfide 2-7)
- EC50 (Urotensin-2 receptor): 1.2 nM

SMILES: CC(C)[C@H](NC(=O)[C@@H]1CSSC(C)(C)[C@H](NC(=O)[C@H](CC(=O)O)NC(=O)[C@@H]2CCCN2C(=O)[C@@H](NC(=O)[C@H](C)N)[C@@H](C)O)C(=O)N[C@@H](Cc2ccccc2)C(=O)N[C@H](Cc2c[nH]c3ccccc23)C(=O)N[C@@H](CCCN)C(=O)N[C@@H](Cc2ccc(O)cc2)C(=O)N1)C(=O)O
- Activity ([2]; filed as modulator): Active
- Activity (Aortic ring [3]): inactive
- Emax (Aortic ring [4]): 264.3 dyn/mg
- Emax (Aortic ring [5]): 320.8 dyn/mg
- Emax (Aortic ring [6]): 315.6 dyn/mg
- Emax (Aortic ring [7]): 248.2 dyn/mg
- Emax (Aortic ring [8]): 541.8 dyn/mg
- Emax (Aortic ring [9]): 263 dyn/mg
- Emax (Aortic ring [10]): 121.9 dyn/mg
- Emax (Aortic ring [11]): 373.5 dyn/mg
- Emax (Aortic ring [12]): 285 dyn/mg

SMILES: CC(C)[C@H](NC(=O)[C@@H]1CSSC(C)(C)[C@H](NC(=O)[C@H](CC(=O)O)NC(=O)[C@@H]2CCCN2C(=O)[C@@H](NC(=O)[C@@H](N)CCN)[C@@H](C)O)C(=O)N[C@@H](Cc2ccccc2)C(=O)N[C@H](Cc2c[nH]c3ccccc23)C(=O)N[C@@H](CCCN)C(=O)N[C@@H](Cc2ccc(O)cc2)C(=O)N1)C(=O)O
- Activity [2]: inactive
- Activity (Aortic ring [3]): inactive
- Emax (Aortic ring [13]): 208.6 dyn/mg
- Emax (Aortic ring [14]): 397 dyn/mg
- Emax (Aortic ring [15]): 164 dyn/mg
- Emax (Aortic ring [16]): 98.9 dyn/mg
- Emax (Aortic ring [17]): 166.4 dyn/mg
- Emax (Aortic ring [18]): 119.5 dyn/mg
- Emax (Aortic ring [19]): 141.2 dyn/mg
- Emax (Aortic ring [20]): 99.6 dyn/mg
- Emax (Aortic ring [21]): 38.23 dyn/mg

SMILES: CC(C)[C@H](NC(=O)[C@@H]1CSSC[C@H](NC(=O)[C@H](CC(=O)O)NC(=O)[C@@H]2CCCN2C(=O)[C@@H](NC(=O)[C@@H](N)CCC(=O)O)[C@@H](C)O)C(=O)N[C@@H](Cc2ccccc2)C(=O)N[C@@H](Cc2c[nH]c3ccccc23)C(=O)N[C@@H](CCCCN)C(=O)N[C@@H](Cc2ccc(O)cc2)C(=O)N1)C(=O)O [UROTENSIN-II]
- Emax (Aortic ring [22]): 237.2 dyn/mg
